How the values were obtained:
Assay type in all cases: cell-based, Human
[1] = tested on: IGROV; assay: Matrigel invasion assay, IGROV cells; details: blebbistatin 100 μM in top chamber, 18-24 hours, vs untreated
Procedure: (§1) Cancer cells were seeded at a cell density of 25,000-70,000 on either Matrigel coated or uncoated filters and allowed to invade for 18-24 hours towards 10% FBS in the lower chamber. Cells invading and migrating through the Matrigel layer were visualized and counted as described^9. Percent cell migration or invasion was determined as the fraction of total cells that invaded through the filter. Blebbistatin (100 μM)^10 where used, was added to the top chamber of the transwell and migration and invasion allowed to proceed. Each assay was set up in duplicate, and each experiment was conducted at least 3 times with 4 random fields from a 10× magnification analyzed for each membrane.

[2] = tested on: IGROV; assay: Transwell migration assay, IGROV cells; details: blebbistatin 100 μM in top chamber, vs untreated
Procedure: as §1

[3] = tested on: IGROV; assay: Magnetic tweezers assay (3DFM) of cell stiffness, IGROV cells; details: blebbistatin 100 μm added 30 mins before beads, vs untreated
Procedure: (§2) The Three Dimensional Force Microscope (3DFM)^11 was used for applying controlled and precise 60-100 pN local force (FIG. 6) on 2.8 micron magnetic beads (DYNAL Biotech, Oslo, Norway) coated with fibronectin (Sigma Aldrich, St. Louis, Mo.). Briefly, cells were plated on coverslips followed by addition of the beads. Cells and beads were incubated for 30 minutes followed by force application and resultant bead displacements were recorded and analyzed. The displacement of the beads was recorded with high-speed video camera (Pulnix, JAI, Ca) and tracked using Video Spot Tracker (http://cismm.cs.unc.edu). The mean creep compliance was calculated from the tracked displacements as described. Spring constants were derived by fitting the compliance curves to a Jeffrey's model for viscoelastic liquids (FIG. 6). […]
(§3) To further examine the relationship between cancer cell deformability and invasive potential, the effective shear modulus (here on referred to as the stiffness, k), of the cell was calculated by fitting a modified Kelvin Voigt model^12 to the compliance using a least squares fit (see FIG. 6). […] In addition, the variability in stiffness correlates directly with a specific measure of metastatic progression as determined using in vitro three-dimensional invasion assays.

[4] = tested on: Ovca429TβRIII cells; assay: Matrigel invasion assay, Ovca429TβRIII cells; details: Ovca429TβRIII cells treated with blebbistatin, vs untreated
Procedure: as §1

[5] = tested on: Ovca429TβRIII cells; assay: Magnetic tweezers assay (3DFM) of cell stiffness, Ovca429TβRIII cells; details: Ovca429TβRIII cells treated with blebbistatin
Procedure: as §2, §3

[6] = tested on: IGROV; assay: Viability of IGROV cells under blebbistatin; details: concentration that disrupted cortical pMLC localization
[7] = tested on: IGROV; assay: Immunofluorescence of cortical pMLC localization, IGROV cells; details: blebbistatin
Procedure: Immunoflourescence was performed essentially as described previously^9 and images were obtained using a Nikon inverted microscope.

Cc1ccc2c(c1)C(=O)C1(O)CCN(c3ccccc3)C1=N2 (centres unmarked) [Blebbistatin]
increase of cell invasion [1]: 2.5 fold
increase of cell migration [2]: 4 fold
decrease of cell stiffness [3]: 2 fold
increase of invasiveness [4]: four fold
stiffness K (spring constant) [5]: 1.48 Pa
decrease of stiffness ([5]; vs untreated): two fold
effect on viability [6]: did not affect viability
cortical pMLC localization [7]: disrupted cortical pMLC localization

From patent US20130089869A1, “Methods For and Uses of Mechanical Stiffness Profiling of Cancer Cells” (DUKE UNIVERSITY, priority 2011, published 2013)
